Results published in patent US12371454B2, “Cyclic peptide compound having Kras inhibitory action” (priority 2019, dated 2025).
Starred links: 1 amine or outer side, 2 acyl side, 3 side chain; linkers in the order of their positions; H or OH if unused. Positions of bridges follow the written chain, without caps; N, C: chain ends. Non-standard residues stand in square brackets, D forms with d. Residues, ends and D or L forms follow the SMILES beside them. *: point of attachment. hPhe(3,5-F2-4-CF3) = N[C@@H](CCc1cc(F)c(C(F)(F)F)c(F)c1)C(=O)O; hPhe(3-Cl-4-CF3) = N[C@@H](CCc1ccc(C(F)(F)F)c(Cl)c1)C(=O)O; NMePhe(4-CF3) = CN[C@@H](Cc1ccc(C(F)(F)F)cc1)C(=O)O; NMeAbu(4,4,4-F3) = CN[C@@H](CC(F)(F)F)C(=O)O; NMePhe(4-Cl) = CN[C@@H](Cc1ccc(Cl)cc1)C(=O)O; NMePhe(4-Me) = CN[C@@H](Cc1ccc(C)cc1)C(=O)O; NMePhe(4-F) = CN[C@@H](Cc1ccc(F)cc1)C(=O)O; hPhe(4-Cl) = N[C@@H](CCc1ccc(Cl)cc1)C(=O)O; NMedβ3hAla = C[C@H](CC(=O)[*:2])N(C)[*:1]; Leu(4,5-dehydro) = C=C(C)C[C@H](N)C(=O)O; Phe(3-Cl) = N[C@@H](Cc1cccc(Cl)c1)C(=O)O; NMeGly(cPent) = CN[C@H](C(=O)O)C1CCCC1; Phe(3-I) = N[C@@H](Cc1cccc(I)c1)C(=O)O; Pro(4,4-F2) = O=C(O)[C@@H]1CC(F)(F)CN1; NMeCha = CN[C@@H](CC1CCCCC1)C(=O)O; NMeChg = CN[C@H](C(=O)O)C1CCCCC1; NMeI = CC[C@H](C)[C@H](NC)C(=O)O; NMeT = CN[C@H](C(=O)O)[C@@H](C)O; NMeD = CN[C@@H](CC(=O)O)C(=O)O; NMeL = CN[C@@H](CC(C)C)C(=O)O; NMeV = CN[C@H](C(=O)O)C(C)C; NMeA = CN[C@@H](C)C(=O)O; NMeAib = CNC(C)(C)C(=O)O; Nle = CCCC[C@H](N)C(=O)O; Piperidide = C1CCN(*)CC1; Pyrrolidide = C1CCN(*)C1; dNMeA = CN[C@H](C)C(=O)O; Ac5c = NC1(C(=O)O)CCCC1; Aze = O=C(O)[C@@H]1CCN1; Thp = NC1(C(=O)O)CCOCC1; Ac4c = NC1(C(=O)O)CCC1; Sar = CNCC(=O)O

biological target: T1, Kras and SOS1 (biotin-tagged human Kras loaded with GDP, His-tagged human SOS1) (Homo sapiens, UniProt P01116, G12D); assay: Protein-protein interaction inhibition between Kras and SOS1 (KrasGl2D-SOS PPI) using AlphaScreen; type: binding; conditions: AlphaScreen; biotin-tagged human Kras loaded with GDP, His-tagged human SOS1; read-out: KRAS G12D-SOS PPI IC50
T1 construct: made in house; host or cells: E. coli (stated for Kras only)
T1 sequence (P01116 1-188 isoform P01116-2 G12D): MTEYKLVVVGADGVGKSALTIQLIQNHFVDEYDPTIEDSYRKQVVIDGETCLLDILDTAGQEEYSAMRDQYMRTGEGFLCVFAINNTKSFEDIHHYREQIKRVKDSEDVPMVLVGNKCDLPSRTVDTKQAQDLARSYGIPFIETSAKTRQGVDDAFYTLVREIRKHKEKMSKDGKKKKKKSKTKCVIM
How it was run: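 Read-out is acceptor-bead light at 520-620 nm, arising when 680 nm-irradiated nickel donor beads pass singlet oxygen to streptavidin acceptors. The bead pair links His-tagged SOS1 with biotin-tagged, GDP-bound Kras from E. coli.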

Compound	IC50 [nM]
CC[C@H](C)[C@@H]1NC(=O)[C@H](CC(C)C)N(C)C(=O)C[C@@H](C(=O)N(C)C)N(C)C(=O)[C@H]([C@@H](C)CC)N(C)C(=O)C2(CCCC2)NC(=O)[C@H](Cc2ccc(F)cc2)N(C)C(=O)[C@H](CCc2cc(F)c(C(F)(F)F)c(F)c2)NC(=O)CN(C)C(=O)[C@H](Cc2ccc(C(F)(F)F)cc2)N(C)C(=O)[C@@H]2CCN2C(=O)[C@H](C)N(C)C1=O [Compound 1882] ([NMeL]I[NMeA][Aze][NMePhe(4-CF3)][Sar][hPhe(3,5-F2-4-CF3)][NMePhe(4-F)][Ac5c][NMeI][NMeD]-NMe2; lactam N-11)	9.7
CC[C@H](C)[C@@H]1NC(=O)[C@H](CC(C)C)NC(=O)C[C@@H](C(=O)N2CCCCC2)N(C)C(=O)[C@H](C(C)C)N(C)C(=O)C2(CCCC2)NC(=O)[C@@H]2CCCN2C(=O)[C@H](CCc2ccc(C(F)(F)F)c(Cl)c2)NC(=O)CN(C)C(=O)[C@H](CC2CCCCC2)N(C)C(=O)[C@@H]2CCN2C(=O)[C@H](C)N(C)C1=O [Compound 368] (LI[NMeA][Aze][NMeCha][Sar][hPhe(3-Cl-4-CF3)]P[Ac5c][NMeV][NMeD]-Piperidide; lactam N-11)	2.7
CC[C@H](C)[C@@H]1NC(=O)[C@H](CC(C)C)N(C)C(=O)C[C@@H](C(=O)N2CCCCC2)N(C)C(=O)[C@H](C(C)C)N(C)C(=O)C2(CCOCC2)NC(=O)[C@@H]2CCCN2C(=O)[C@H](CCc2ccc(Cl)cc2)NC(=O)CN(C)C(=O)[C@H](CC2CCCCC2)N(C)C(=O)CN(C)C(=O)CN(C)C1=O [Compound 448] ([NMeL]I[Sar][Sar][NMeCha][Sar][hPhe(4-Cl)]P[Thp][NMeV][NMeD]-Piperidide; lactam N-11)	91
CC[C@H](C)[C@@H]1NC(=O)[C@H](CC(F)(F)F)N(C)C(=O)C[C@@H](C(=O)N2CCCC2)N(C)C(=O)[C@H](C2CCCCC2)N(C)C(=O)C2(CCCC2)NC(=O)[C@@H]2CC(F)(F)CN2C(=O)[C@H](CCc2cc(F)c(C(F)(F)F)c(F)c2)NC(=O)CN(C)C(=O)[C@H](Cc2ccc(C)cc2)N(C)C(=O)CN(C)C(=O)CN(C)C1=O [Compound 1317] ([NMeAbu(4,4,4-F3)]I[Sar][Sar][NMePhe(4-Me)][Sar][hPhe(3,5-F2-4-CF3)][Pro(4,4-F2)][Ac5c][NMeChg][NMeD]-Pyrrolidide; lactam N-11)	0.57
CC[C@H](C)[C@@H]1NC(=O)[C@H](CC(C)C)N(C)C(=O)C[C@@H](C)N(C)C(=O)[C@H](C2CCCC2)N(C)C(=O)C2(CCC2)NC(=O)[C@@H]2CC(F)(F)CN2C(=O)[C@H](CCc2ccc(C(F)(F)F)c(Cl)c2)NC(=O)CN(C)C(=O)[C@H](Cc2ccc(C)cc2)N(C)C(=O)CN(C)C(=O)CN(C)C1=O [Compound 359] (cyclo([Ac4c][NMeGly(cPent)][NMedβ3hAla][NMeL]I[Sar][Sar][NMePhe(4-Me)][Sar][hPhe(3-Cl-4-CF3)][Pro(4,4-F2)]))	3.2
CC[C@H](C)[C@@H]1NC(=O)[C@H](C)N(C)C(=O)C[C@@H](C(=O)N2CCCCC2)N(C)C(=O)[C@H](C(C)C)N(C)C(=O)C2(CCCC2)NC(=O)[C@@H]2CCCN2C(=O)[C@H](CCc2ccc(C(F)(F)F)c(Cl)c2)NC(=O)[C@@H](C)N(C)C(=O)[C@H](CC2CCCCC2)N(C)C(=O)[C@@H]2CCN2C(=O)[C@H](C)N(C)C1=O [Compound 1103] ([NMeA]I[NMeA][Aze][NMeCha][dNMeA][hPhe(3-Cl-4-CF3)]P[Ac5c][NMeV][NMeD]-Piperidide; lactam N-11)	16
CCCC[C@@H]1NC(=O)[C@H](Cc2cccc(Cl)c2)NC(=O)CN(C)C(=O)[C@H](Cc2ccc(Cl)cc2)N(C)C(=O)CN(C)C(=O)CN(C)C(=O)[C@H]([C@@H](C)CC)NC(=O)[C@H](CC(C)C)N(C)C(=O)C[C@@H](C(=O)N2CCCC2)N(C)C(=O)[C@H](CC(C)C)NC(=O)C(C)(C)N(C)C1=O [Compound 1407] ([NMeL]I[Sar][Sar][NMePhe(4-Cl)][Sar][Phe(3-Cl)][Nle][NMeAib]L[NMeD]-Pyrrolidide; lactam N-11)	170
C=C(C)C[C@@H]1NC(=O)[C@H](Cc2cccc(I)c2)NC(=O)CN(C)C(=O)[C@H](Cc2ccc(Cl)cc2)N(C)C(=O)[C@@H]2CCN2C(=O)CN(C)C(=O)[C@H]([C@@H](C)CC)NC(=O)[C@H](CC(C)C)N(C)C(=O)C[C@@H](C(=O)N2CCCCC2)N(C)C(=O)[C@H](CC(C)C)NC(=O)C(C)(C)N(C)C1=O [Compound 1414] ([NMeL]I[Sar][Aze][NMePhe(4-Cl)][Sar][Phe(3-I)][Leu(4,5-dehydro)][NMeAib]L[NMeD]-Piperidide; lactam N-11)	38
CC[C@H](C)[C@@H]1NC(=O)[C@H](CC(C)C)N(C)C(=O)C[C@@H](C(=O)N2CCCCC2)N(C)C(=O)[C@H]([C@@H](C)OC)N(C)C(=O)C2(CCCC2)NC(=O)[C@@H]2CCCN2C(=O)[C@H](CCc2ccc(C(F)(F)F)c(Cl)c2)NC(=O)CN(C)C(=O)[C@H](CC2CCCCC2)N(C)C(=O)CN(C)C(=O)CN(C)C1=O [Compound 1101] ([NMeL]I[Sar][Sar][NMeCha][Sar][hPhe(3-Cl-4-CF3)]P[Ac5c][NMeT](Me)[NMeD]-Piperidide; lactam N-11)	9
